Reference: paper PMC9577195, “Pharmacokinetics, bioavailability, and plasma protein binding study of glytrexate, a novel multitarget antifolate” (Frontiers in Pharmacology, 2022)
Where “and” joins values, the source holds several entries; their conditions need not be identical. Equal entries are not always repeated. Entries after “also recorded” stand apart in the source; their conditions may differ. Where two headings read alike, the source gives them in different places.

Tests used:
[1] = Plasma protein binding rate by ultrafiltration, rat plasma; assay type: in vitro ADME
Procedure: The glytrexate stock solution was diluted with 20% methanol (1% formic acid) to three mass concentrations of 50, 100, and 200 μg/ml for use. One hundred microliters of glytrexate solution of the corresponding concentration (3 duplicates each in parallel) was added to 900 μl of rat/human plasma, vortexed and mixed well to prepare plasma samples with plasma concentrations of 5, 10, and 20 μg/ml.
The plasma sample was placed in a constant temperature water bath at 37°C for a certain period to obtain an incubation solution. After the incubation solution was removed, it was placed on ice to maintain a low temperature, transferred to a filtrate tube (500 μl), and placed in a low-temperature refrigerated centrifuge at 4°C and 14,000 rpm for 20 min to obtain filtrate.
The test tube containing the drug concentration was incubated in a constant temperature water bath at 37°C. Each sample was obtained at 10 min, 30 min, 60 min, 120 min, 240 min, and 360 min and the drug concentration before and after ultrafiltration was determined. The plasma protein binding rate (%) = [(Cincubation solution-CUltrafiltrate)/Cincubation solution]×100%. GraphPad Prism 8 software was used to perform a one-way analysis of variance on the plasma protein binding rate of glytrexate between different mass concentrations in the same species.

[2] = Metabolic stability in human liver microsomes; assay type: in vitro ADME; settings: 37°C
Procedure: (§1) The test tube containing the drug concentration was incubated in a constant temperature water bath at 37°C. Each sample was obtained at 0, 0.5, 1.0, 1.5, 2.0, and 3.0 h, and the drug concentration was measured.
The metabolic stability of glytrexate was determined by incubation with human liver microsomes at 37°C. The reaction in the incubation system containing 10 μl of glytrexate (1 mg/ml), 50 μl of liver microsomes (1 mg/ml), and 10 μl of PBS (pH 7.4) was initiated by the addition of 30 μl of NADPH after 5 min of preincubation. The total incubation volume was 100 μl. The reaction was terminated at predefined time points (0, 0.5, 1, 1.5, 2, and 3 h). The incubations were conducted in triplicate.
Fifty microliters of the above solution was accurately drawn at different incubation time points, and 155 μl of ice-cold methanol (1% formic acid) and 5 μl of IS solution were added. The mixture was vortexed for 60 s and centrifuged at 14,000 rpm for 10 min. […] An appropriate amount of the supernatant was placed into the sample vial, and analyzed. […]
(§2) All samples were analyzed using the established LC‒MS/MS method, and MultiQuant 3.0 software was used for data processing. The glytrexate concentration at each time point was calculated, the remaining percentage was calculated, and the concentration change trend was analyzed.

[3] = Pharmacokinetics and bioavailability in rats after single oral and intravenous doses; assay type: in vivo, Sprague-Dawley rats; settings: rat; for AUC(0-inf) / Cmax / half-life / AUC / MRT last / bioavailability / CL/F / Tmax: male, Sprague-Dawley, plasma; for AUC: read-out: AUC0-tn; for MRT last: read-out: MRT0-t; for CL/F / Tmax: po
Procedure: Pharmacokinetic and bioavailability studies were carried out in twenty-four male Sprague–Dawley rats. The rats were randomly divided into four groups (n = 6). All of them were fasted for 12 h before administration and were allowed to drink freely. Approximately 300 μl of blood was collected from the posterior canthus venous plexus of each rat into heparinized tubes at 0.1, 0.16, 0.25, 0.5, 1, 2, 4, 8, 12, and 24 h after a single oral administration (i.g.) (12.5, 25, and 50 mg/kg) or at 0.03 h, 0.08, 0.25, 0.5, 1, 2, 4, 6, 8, 12, and 24 h after a single i.v. injection (2 mg/kg). The blood samples were processed to obtain the plasma via centrifugation at 3500 rpm for 10 min and then stored at −80°C until LC–MS/MS analysis.
The plasma samples obtained were processed using the method described in Section 2.4 and then analyzed using the established LC–MS/MS method. The data were processed using MultiQuant 3.0 software. According to the results of the blood drug concentration measurement in rats, the noncompartmental model in DAS 3.2.8 software was used to calculate the corresponding pharmacokinetic parameters, including peak time (Tmax), elimination half-life (T1/2), area under the drug-time curve (AUC0-t, AUC0-∞), maximum plasma concentration (Cmax), apparent volume of distribution (Vz/F), clearance rate (Clz/F), and average residence time (MRT0-t). GraphPad Prism 8 software was used to construct the trend chart of the changes in various parameters in plasma samples based on the measurements to analyze the possible pharmacokinetic characteristics of glytrexate.
If glytrexate has linear kinetic characteristics, the absolute bioavailability can be calculated according to the bioavailability formula, Fabs=(AUCT·Div)/(AUCiv·DT) × 100%, where AUC represents the area under the plasma concentration-time curve. The subscripts T and iv represent oral and intravenous injection, respectively, and D represents the administered dose. The data obtained in the study are expressed as the mean values plus or minus the standard deviation.

[4] = Stability on incubation in human plasma at 37°C; assay type: in vitro ADME; settings: up to 3 h, 1 μg/ml
Procedure: as §1
Fifty microliters of the above solution was accurately drawn at different incubation time points, and 155 μl of ice-cold methanol (1% formic acid) and 5 μl of IS solution were added. The mixture was vortexed for 60 s and centrifuged at 14,000 rpm for 10 min. Then, 165 μl of supernatant was transferred to a new tube and evaporated to dryness under a gentle stream of nitrogen at room temperature. The residue was dissolved in 50 μl 20% methanol (1% formic acid), vortexed for 60 s and centrifuged at 14,000 rpm for 10 min. An appropriate amount of the supernatant was placed into the sample vial, and analyzed. Each experiment was repeated 3 times.
The plasma sample concentration was 1 μg/ml, and the concentration of the other samples was 100 μg/ml.
as §2

What does the source list for `Nc1nc2[nH]c(CC(=O)NCC(=O)N[C@@H](CCC(=O)O)C(=O)O)cc2c(=O)[nH]1` [glytrexate, (S)-2-{2-[2-(2-amino-4-oxo-4,7-dihydro-3H-pyrrolo [2,3-d]pyrimidin-6-yl)-acetylamino]-acetylamino}-pentanedioic acid]?
fraction unbound at 30 min, 5 μg/ml ([1]; 5 μg/ml, 37°C, 30 min incubation, ultrafiltration): 0.863; fraction unbound at 30 min, 10 μg/ml ([1]; 10 μg/ml, 37°C, 30 min incubation, ultrafiltration): 0.813; fraction unbound at 30 min, 20 μg/ml ([1]; 20 μg/ml, 37°C, 30 min incubation, ultrafiltration): 0.947; fraction unbound at 30 min ([1]; over 5, 10 and 20 μg/ml): > 0.7; metabolic stability in human liver microsomes (in words) ([2]; up to 3 h): good microsomal stability; half-life at 0.1 mg/ml ([2]; human, liver microsomes, pH 7.4, NADPH, regression of ln remaining vs incubation time, read-out: half-life (t1/2) in human liver microsomes): 1.83 h; AUC(0-inf) ([3]; intravenous 2 mg/kg): 10200 ± 1710 ng·h/mL; Cmax ([3]; intravenous 2 mg/kg): 17600 ± 767 ng/mL; half-life ([3]; intravenous 2 mg/kg): 2.78 ± 0.26 h; AUC ([3]; intravenous 2 mg/kg): 10200 ± 1710 ng·h/mL; MRT last ([3]; intravenous 2 mg/kg): 0.91 ± 0.05 h; AUC(0-inf) ([3]; oral 12.5 mg/kg): 370 ± 26 ng·h/mL; Cmax ([3]; oral 12.5 mg/kg): 107 ± 12.1 ng/mL; half-life ([3]; oral 12.5 mg/kg): 2.15 ± 0.16 h; bioavailability ([3]; oral 12.5 mg/kg vs intravenous 2 mg/kg, read-out: F (bioavailability)): 0.57 ± 0.08%; AUC ([3]; oral 12.5 mg/kg): 362 ± 24.6 ng·h/mL; MRT last ([3]; oral 12.5 mg/kg): 3.12 ± 0.14 h; AUC(0-inf) ([3]; oral 25 mg/kg): 750 ± 30.2 ng·h/mL; Cmax ([3]; oral 25 mg/kg): 496 ± 19.8 ng/mL; half-life ([3]; oral 25 mg/kg): 2.25 ± 0.093 h; bioavailability ([3]; oral 25 mg/kg vs intravenous 2 mg/kg, read-out: F (bioavailability)): 0.59 ± 0.06%; AUC ([3]; oral 25 mg/kg): 750 ± 30.2 ng·h/mL; MRT last ([3]; oral 25 mg/kg): 2.95 ± 0.16 h; AUC(0-inf) ([3]; oral 50 mg/kg): 2960 ± 190 ng·h/mL; Cmax ([3]; oral 50 mg/kg): 1290 ± 109 ng/mL; half-life ([3]; oral 50 mg/kg): 2.66 ± 0.15 h; bioavailability ([3]; oral 50 mg/kg vs intravenous 2 mg/kg, read-out: F (bioavailability)): 1.15 ± 0.07%; AUC ([3]; oral 50 mg/kg): 2960 ± 189 ng·h/mL; MRT last ([3]; oral 50 mg/kg): 3.16 ± 0.096 h; bioavailability ([3]; oral dose range 12.5–50 mg/kg, read-out: oral bioavailability): 0.57 to 1.15%; CL/F ([3]; 12.5 mg/kg, oral 12.5 mg/kg): 565 mL/min/kg; Tmax ([3]; 12.5 mg/kg, oral 12.5 mg/kg, read-out: Tmax): 0.5 h; CL/F ([3]; 25 mg/kg, oral 25 mg/kg): 556 mL/min/kg; Tmax ([3]; 25 mg/kg, oral 25 mg/kg, read-out: Tmax): 0.5 h; CL/F ([3]; 50 mg/kg, oral 50 mg/kg): 282 mL/min/kg; Tmax ([3]; 50 mg/kg, oral 50 mg/kg, read-out: Tmax): 0.5 h; Tmax ([3]; 50 mg/kg, single oral administration 12.5, 25 and 50 mg/kg, read-out: Tmax (time of peak blood concentration)): 0.5 h; intravenous AUC of glytrexate relative to pemetrexed ([3]; glytrexate 2 mg/kg vs pemetrexed 10 mg/kg): approximately 1.63 fold; intravenous T1/2 of glytrexate relative to pemetrexed ([3]; intravenous): approximately 5 fold; Cl/F ([3]; intravenous 2 mg/kg): 3.33 ± 0.5 mL/min/kg; V/F ([3]; intravenous 2 mg/kg): 0.80 ± 0.15 L/kg; Cl/F ([3]; oral 12.5 mg/kg, 12.5 mg/kg): 564.8 ± 42.8 mL/min/kg; V/F ([3]; oral 12.5 mg/kg, 12.5 mg/kg): 104.724 ± 6.709 L/kg and 104.72 ± 6.71 L/kg; Cl/F ([3]; oral 25 mg/kg, 25 mg/kg): 556.2 ± 22 mL/min/kg; V/F ([3]; oral 25 mg/kg, 25 mg/kg): 108.42 ± 7.698 L/kg and 108.42 ± 7.70 L/kg; V/F ([3]; oral 50 mg/kg, 50 mg/kg): 64.832 ± 4.529 L/kg and 64.83 ± 4.53 L/kg; time of highest plasma concentration ([3]; single i.v. injection 2 mg/kg): 0.03 h; stability in human plasma compared with other matrices (in words) [4]: more stable in human plasma than in human liver microsomes and artificial gastrointestinal fluid; also recorded: more stable in human plasma than in rat plasma and in human liver microsomes; also recorded: greatest amount of remaining glytrexate was found in human plasma
